Measured values reported in paper PMC11783601, “Analogue-Sensitive Inhibition of Histone Demethylases Uncovers Member-Specific Function in Ribosomal Protein Synthesis” (Journal of the American Chemical Society, 2025).
Where two headings read alike, the source gives them in different places.

Key:
TET2 = experiment: MALDI-based assay for TET2 on 5-mC DNA substrate; format: biochemical, human; conditions: MALDI-TOF, 5mC oligonucleotide
Experimental: Aliquots were kept on ice for 10 minutes before addition of 200
µM 2OG or equivalent volume of water. After 30-60 minutes incubation at 37 °C, 1 µL sample and
(§1) 1 µL S-DHB matrix were spotted on a MALDI plate and monitored with Bruker FlexControl in
the reflectron positive mode and analyzed on Bruker FlexAnalysis software. Relative inhibition
was monitored via assessing percent product decrease with L-Leu NOG samples compared to no
temperature for 10 minutes.

wild type KDM4D = target: T1, wild type KDM4D (Homo sapiens, UniProt Q6B0I6); experiment: MALDI-MS demethylase assay on H3K9me3 peptide; format: biochemical
T1 construct: human KDM4B and KDM4D jmjC catalytic domain for bacterial; Strep II (N); made in house; host or cells: E. coli Rosetta [DE3]
T1 sequence (Q6B0I6 146-312 limits assumed): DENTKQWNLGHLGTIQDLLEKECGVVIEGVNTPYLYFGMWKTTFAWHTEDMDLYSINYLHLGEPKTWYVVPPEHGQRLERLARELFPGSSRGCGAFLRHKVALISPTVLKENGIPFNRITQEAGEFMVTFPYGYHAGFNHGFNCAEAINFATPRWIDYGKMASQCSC
Experimental: (§2) We next tested the inhibitory potential of 6 against these proteins using H3K9me3 peptide substrate and analyzed it by MALDI-MS. […] We subsequently examined the ability of asKDM4 variants to demethylate full-length histones extracted from mammalian cells. HEK293T cells were cultured in the presence of 10 μM n-octyl IOX1, a broad-spectrum inhibitor of demethylases,[41],[42] to generate a hypermethylated proteome (Figure S19). The extracted histone was incubated with the as variants individually, each with or without 6, and the extent of demethylation was analyzed by Western blot using the H3K9me3-specific antibody. […]
(§3) assay (Biorad) kit with BSA concentrations as a standard. […]
(§4) 8. Demethylase activity of the wild type and mutant KDM4 proteins on peptide substrate To monitor enzymatic activity, a demethylase activity assay was optimized and then observed through MALDI-TOF.7 Each histone demethylase assay sample included either wild type or mutant enzyme (10µM KDM4A, 7.5µM KDM4C, 10µM KDM4D, or 1µM KDM4E), 10 µM peptide, 200 µM 2OG, 50 mM Tris pH 8, […], 0-200µM NOG analogue, and 2 mM L-ascorbic acid with a total assay volume of 10 µL. Fe(II) supplement and L-ascorbic acid […]
(§5) Lastly, the 2OG and peptide were […]
(§6) positive mode and analyzed on Bruker FlexAnalysis software. The percent demethylated peptide […]
(§7) the multiple demethylation events on the peptide. […]

KDM4D-F189A = target: T2, KDM4D-F189A (Homo sapiens, UniProt Q6B0I6, F189A); experiment: MALDI-MS demethylase assay on H3K9me3 peptide; format: biochemical; conditions: 50 µM (Fig S15)
T2 construct: human KDM4B and KDM4D jmjC catalytic domain for bacterial; Strep II (N); made in house; host or cells: E. coli Rosetta [DE3]
T2 sequence (Q6B0I6 146-312 F189A limits assumed): as the sequence (Q6B0I6 146-312 limits assumed) above, with F44A counted along it
Experimental: as §2, §3, §4, §5, §6, §7

KDM4E-F186A = target: T3, KDM4E-F186A (Homo sapiens, UniProt B2RXH2, F186A); experiment: MALDI-MS demethylase assay on H3K9me3 peptide; format: biochemical
T3 construct: we recombinantly expressed the catalytic domains of 12 wild type dioxygenases, in addition to KDM4A-E; 6xHis (N); host or cells: E. coli BL21 (DE3)
T3 sequence (B2RXH2 143-309 F186A limits assumed): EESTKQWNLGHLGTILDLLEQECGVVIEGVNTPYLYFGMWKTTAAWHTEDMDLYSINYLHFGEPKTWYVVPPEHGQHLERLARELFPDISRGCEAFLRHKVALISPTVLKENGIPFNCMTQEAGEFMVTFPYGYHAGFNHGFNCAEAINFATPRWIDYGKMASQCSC
Experimental: as §2, §3, §4, §5, §6, §7

KDM4C-F187A = target: T4, KDM4C-F187A (Homo sapiens, UniProt Q9H3R0, F187A); experiment: MALDI-MS demethylase assay on H3K9me3 peptide; format: biochemical; conditions: 50 µM (Fig S14)
T4 construct: 6xHis-tagged human KDM4C catalytic domain construct; 6xHis (N); made in house; host or cells: E. coli BL21 [DE3] star
T4 sequence (Q9H3R0 144-310 F187A limits assumed): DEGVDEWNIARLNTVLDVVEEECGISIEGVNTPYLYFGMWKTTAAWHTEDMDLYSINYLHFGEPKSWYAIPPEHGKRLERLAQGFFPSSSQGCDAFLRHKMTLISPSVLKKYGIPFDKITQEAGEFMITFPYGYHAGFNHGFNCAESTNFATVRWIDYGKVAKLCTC
Experimental: as §2, §3, §4, §5, §6, §7

wild type KDM4C = target: T5, wild type KDM4C (Homo sapiens, UniProt Q9H3R0); experiment: MALDI-MS demethylase assay on H3K9me3 peptide; format: biochemical
T5 construct: 6xHis-tagged human KDM4C catalytic domain construct; 6xHis (N); made in house; host or cells: E. coli BL21 [DE3] star
T5 sequence (Q9H3R0 144-310 limits assumed): as the sequence (Q9H3R0 144-310 F187A limits assumed) above, with A44F counted along it
Experimental: as §2, §3, §4, §5, §6, §7

wild type KDM4E = target: T6, wild type KDM4E (Homo sapiens, UniProt B2RXH2); experiment: MALDI-MS demethylase assay on H3K9me3 peptide; format: biochemical
T6 construct: we recombinantly expressed the catalytic domains of 12 wild type dioxygenases, in addition to KDM4A-E; 6xHis (N); host or cells: E. coli BL21 (DE3)
T6 sequence (B2RXH2 143-309 limits assumed): as the sequence (B2RXH2 143-309 F186A limits assumed) above, with A44F counted along it
Experimental: as §2, §3, §4, §5, §6, §7

PHD3 (EGLN3) = target: T7, PHD3 (EGLN3) (Homo sapiens, UniProt Q9H6Z9); experiment: MALDI-based assay EGLN3 prolyl hydroxylation of peptide; format: biochemical; conditions: MALDI-TOF, peptide substrate
T7 construct: Full length EGLN3 construct plasmid with; TEV-His (N); host or cells: E. coli BL21 (DE3)
T7 sequence (Q9H6Z9 whole entry): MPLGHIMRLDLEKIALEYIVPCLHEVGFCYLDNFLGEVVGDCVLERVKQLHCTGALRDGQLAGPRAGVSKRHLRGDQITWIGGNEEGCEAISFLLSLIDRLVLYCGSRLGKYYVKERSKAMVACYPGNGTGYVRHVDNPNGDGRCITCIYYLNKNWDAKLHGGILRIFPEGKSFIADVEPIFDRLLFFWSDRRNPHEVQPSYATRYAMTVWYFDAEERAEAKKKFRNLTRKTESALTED
Experimental: demethylation events on the peptide. The percent peak area was calculated, and the K27me2, me1,
and me0 peaks were summed to get the relative percent demethylated peptide.
MALDI-based assay for FTO and ALKBH5: To determine the enzymatic activity of FTO and
ALKBH5 recombinant proteins in the presence of L-Leu NOG 6, a previously published methods
were utilized.15, 18 Briefly,10 µM of each protein was incubated in the presence of 10 µM RNA
7.5, 150 mM KCl, 50 µM L-Leu NOG or equivalent volume of water in 10 µL aliquots. The
samples were placed on ice for 10 minutes followed by addition of 200 µM 2OG or equivalent
volume of water. After incubation at 37 °C for 30 minutes, samples were desalted with 3 µL of BT
spotted on a MALDI plate with 1uL sample and 1uL of 3-HPA matrix and monitored with Bruker
FlexControl in the reflectron negative mode and analyzed on Bruker FlexAnalysis software.
Relative inhibition was monitored via assessing percent product decrease with L-Leu NOG
MALDI-based assay for C14orf169 (NO66) and MINA: To monitor the enzymatic activity of […]
as §1
the reflectron positive mode and analyzed on Bruker FlexAnalysis software. […]
was monitored via assessing percent product decrease with L-Leu NOG samples compared to no […]
monitored following a reported method.19 To monitor the enzymatic activity of EGLN1 and 3 […]

Question: What does the source list for `CC(C)CC(NC(=O)C(=O)O)C(=O)O` (stereo not drawn) [compound 6, N-oxalyl leucine]?
Answer: inhibition of TET2 (TET2): No inhibition; inhibition of wild type KDM4D (wild type KDM4D): fully refractory; inhibition of wild type KDM4D (wild type KDM4D; listed as NOG 6): does not inhibit; inhibition of KDM4D-F189A (KDM4D-F189A): significantly inhibited; inhibition of KDM4D-F189A (KDM4D-F189A; listed as NOG 6): inhibits the mutant completely; inhibition of KDM4E-F186A (KDM4E-F186A): significantly inhibited; inhibition of KDM4C-F187A (KDM4C-F187A): significantly inhibited; inhibition of KDM4C-F187A (KDM4C-F187A; listed as NOG 6): inhibits the mutant completely; inhibition of wild type KDM4C (wild type KDM4C): fully refractory; inhibition of wild type KDM4C (wild type KDM4C; listed as NOG 6): does not inhibit; inhibition of wild type KDM4E (wild type KDM4E): fully refractory; inhibition of PHD3 (PHD3 (EGLN3)): No inhibition
